Assay results reported in US20250339569A1, “CARBONIC ANHYDRASE IX LIGANDS” (priority 2021, published 2025).
Where two headings read alike, the source gives them in different places.

Columns and labels:
HT-29 tumor = experiment: Biodistribution study (SPECT/CT) in HT-29 tumor-bearing mice; format: in vivo, NMRI nude mice; conditions: HT-29, In-111-labeled
Protocol: (§1) The effect on tumor uptake of prior injection of gelofusine for kidney protection was investigated in mice bearing the SK-RC-52 tumor. Biodistribution was evaluated using in vivo SPECT/CT imaging. Prior to the in vivo study the compounds (ligands) were initially radiolabeled with In-111 and the stability of radiolabeled compounds was evaluated in buffer at three different timepoints.
(§2) The study was performed in female NMRI nude mice (approximately 6 weeks of age) from Janvier Labs, France, housed up to 5 mice per cage.
(§3) The column was washed with 2 mL water, and then the final product was eluted from the column in EtOH solution (50%) • The sample was formulated in PBS to the final concentration of 150 MBq/mL and 5 nmol/mL.
(§4) SK-RC-52 cells were cultured in RPMI 1640 with GlutaMax-I (Thermo Fisher Scientific #61870044) supplemented with 10% fetal bovine serum+1% penicillin/streptomycin, harvested, washed twice in RPMI 1640 and resuspended at 2×10^7 cells/mL in RPMI 1640. HT-29 cells were cultured in McCoy's 5a Medium Modified (Sigma #M9309). For inoculation of HT-29 cells, cells were harvested, washed twice in PBS and resuspended at 5×10^7 cells/mL in PBS. Cells were kept on ice until inoculation.
(§5) Animals were anaesthetized (isoflurane, 2-4% in ambient air supplemented with 100% 02) prior to tumor inoculation. The tumor cells (100 μL suspension of either SK-RC-52 cells (2×10^6 cells/animal) or HT-29 cells (5×10^6 cells/animal)) were subcutaneously inoculated in the right flank using a 1-mL syringe equipped with a 27 G needle. Tumor growth and animal weight were measured twice per week. Tumor size was measured by caliper and the volume was estimated using the following formula: 0.52×(length×width^2). When tumor sizes reached 150-250 mm^3, animals were randomized into groups (n=3) of similar average tumor volume and body weight.
(§6) Animals were injected intravenously with In-111-labeled compounds (single bolus, 22.3-31.2 MBq, ˜1 nmol ligand, injection volume: 100 μL) in the lateral tail vein using a 29 G syringe.
(§7) CT was performed with helical scan, 300 ms exposure, reconstruction resolution of 250 μm. SPECT was performed with multi-pinhole scan and a 30 s frame time. For the quantification of the radioactivity uptake, regions of interests (ROIs) were drawn over the tumor, kidney, liver, and heart (estimate of blood) identified on the images. Uptake was expressed as percent of injected dose per gram tissue (% ID/g).

[1] = as above; format: in vivo, NMRI nude mice; conditions: female, NMRI nude, mouse, in vivo, iv, total radioactivity, HT-29, In-111-labeled, Mean ± SEM
Protocol: as §1, §2, §3, §4, §5, §6, §7

human CAIX = human CAIX (Homo sapiens, UniProt Q16790); experiment: In vitro SPR binding assay of DPI-4452, natLu-DPI-4452 and natGa-DPI-4452 to CAIX (anti-human Fc capture); design: purchased SinoBliological (Sino Biological) 10107-H02H
Protocol: Surface Plasmon Resonance (SPR) studies were performed on a Biacore™ T200 using a ligand capture approach. Basically, anti-human Fc antibodies were immobilized on the surface of a sensor chip and CAIX was captured on the functionalized surface via its Fc Tag.
Then, each compound was injected at increasing concentrations on the captured CAIX in order to measure the in real-time interaction of the compound to its target (i.e. the captured CAIX). The in real-time monitoring of the association and dissociation of the interaction gives access to the interaction kinetics parameters (i.e. the association and dissociation rate constants and the resulting affinity constants).
• A series S CM5 sensor chip was used (Cytiva). • All reagents used for the immobilization procedure were part of the Amine Coupling Kit, type 2 and/or the Human Antibody Capture Kit (Cytiva). The running buffer (HBS-EP+) was prepared by 10-fold dilution of the stock HBS-EP+ 10× solution (Cytiva). • Anti-human Fc antibodies stock solution (0.5 mg/mL in 0.15 M NaCl) was diluted in 10 mM sodium acetate pH 5.0 to a final concentration of 25 μg/mL directly into a plastic vial 7 mm. • Amine coupling reagents were transferred into plastic vials 7 mm as follow: • 95 μL of 0.4 M 1-ethyl-3-(3-dimethylaminopropyl)carbodiimide (EDC). • 95 μL of 0.1 M N-hydroxysuccinimide (NHS). • An empty plastic vial 7 mm was added in the Biacore™ sample rack for mixing. • 150 μL of 1 M ethamolamine-HCl, pH 8.5. • Plastic vials were closed with rubber caps and the sample rack was inserted into the Biacore™ T200 sample compartment. • The Biacore™ T200 Amine Wizard was used to immobilize the anti-Human Fc antibodies on the four flow-cells of a series S CM5 sensor chip simultaneously with defined contact time of 360 seconds and flow-rate of 5 μL/min. • The immobilization procedure was performed at 25° C., following Cytiva's recommendations, as described in Table 23.
This procedure allowed to reach immobilization levels between 6000 and 9000 RU of anti-human Fc antibodies on the sensor chip surface.
• CAIX (Sino Biological, 10107-H02H) stock solution was prepared from lyophilized material reconstituted with deionized water to a concentration of 0.25 μg/mL (3.69 μM), following the supplier recommendations. • CAIX working solution was obtained after dilution of CAIX stock solution with PBS-P+1×, 0.1% DMSO to a final concentration of 200 nM directly in a Biacore™ plastic vial.
• For each measurement, the raw surface plasmon resonance response (RU) was plotted against time (s) as a sensorgram using the Biacore™ T200 Control Software. • Raw data were corrected by double referencing with subtraction of the signal of both the reference flow-cell and the blank cycle. • The association and dissociation rate constants (ka and kd, respectively), as well as the dissociation constant KD and dissociation half-life t1/2 were determined from the corrected sensorgrams by fitting the data to a 1:1 Langmuir binding model with the Biacore™ T200 evaluation software.

[2] = Pharmacokinetic characterization in healthy dogs; format: in vivo, beagle dogs; conditions: dog; for AUC(0-inf) / Cmax / clearance / half-life / Vd / CL renal: male, beagle, iv; for AUC(0-inf) / Cmax / clearance / half-life / Vd: plasma; for half-life: read-out: terminal half-life (T1/2) (converted); for Vd: read-out: volume of distribution; for CL renal: urine and plasma, read-out: estimated renal clearance
Protocol: The pharmacokinetics of DPI-4452 after a single intravenous (i.v.) dose was investigated in healthy dogs. […] Plasma and urine samples collected after dosing were analyzed using a LC-HRMS (liquid chromatography coupled with high-resolution mass spectrometry) assay method. Concentration values were used for pharmacokinetic calculations.
DPI 4452 was formulated in 0.1 M HEPES pH 7.0 at the final concentrations of 0.05 and 0.4 mg/mL for dosing at 0.1 and 0.8 mg/kg, respectively. Male beagle dogs (3 animals per dose level; overall 8.9 to 12.4 kg body weight) were administered intravenously (bolus) in a 2 mL/kg dosing volume. Blood samples were collected in K2EDTA tubes at 5 min, 15 min, 30 min, 1 h, 2 h, 4 h, 6 h, 24 h, and urine was collected over 24 hours post dose. The blood samples were kept on wet ice until plasma separation by centrifugation within 60 min after sampling. The plasma samples were transferred into plastic tubes, frozen and stored at −80° C. until analysis.
Plasma and urine samples were analyzed by […] after solid phase extraction, using DPI-4501 as internal standard. Chromatographic separation was run on a Waters Acquity HSS T3 C18 2.1×50 mm, 1.8 μm column. Detection was achieved on a Sciex API6600 TOF mass spectrometer. The lower limit of quantification was 2.00 ng/mL in urine and plasma.
The NCA pharmacokinetic analysis of plasma concentration data was conducted using Phoenix WinNonlin 6.3 software. Nominal doses were used for all animals. The terminal phase half-life (T1/2) was calculated by least-squares regression analysis of the terminal linear part of the log concentration-time curve. The area under the plasma concentration-time curve (AUC) was determined with the linear trapezoidal rule for increasing values and log trapezoidal rule for decreasing values up to the last measurable concentration.

[3] = Biodistribution study (SPECT/CT) in SK-RC-52 tumor-bearing mice with or without gelofusine; format: in vivo, NMRI nude mice; conditions: female, NMRI nude, mouse, in vivo, iv, total radioactivity
Protocol: as §1, §2, §3, §4, §5, §6, §7

In the case of `CC(C)C[C@@H]1NC(=O)[C@H](Cc2cccc(NC(=O)CCCS(N)(=O)=O)c2)NC(=O)[C@H](CC(=O)O)NC(=O)[C@H]2CCCN2C(=O)[C@H](CCC(=O)O)NC(=O)[C@@H](NC(=O)[C@H](CCC(N)=O)NC(=O)CN2CCN(C(=O)CN3CCN(CC(=O)O)CCN(CC(=O)O)CCN(CC(=O)O)CC3)CC2)CSCc2cccc(c2)CSC[C@@H](C(N)=O)NC(=O)[C@H](CO)NC(=O)[C@H](Cc2c[nH]c3ccccc23)NC(=O)[C@H]([C@@H](C)O)NC1=O` [DPI-4452, DOTA-PPAc-Gln-[Cys(3MeBn)-Glu-pro-Asp-Af3(Cpsu)-Leu-Thr-Trp-Ser-Cys]-NH2], the “Time to peak uptake in tumor” value (HT-29 tumor) is reported as 2 h, the “% remaining tumor uptake at 24 h p.i.” value (HT-29 tumor; Mean ± SEM) is reported as 65.8 ± 3.8% and the tissue uptake at 4 h ([1]; read-out: Blood uptake at 4 h p.i.) is reported as 0.04 ± 0.002 %ID/g. For the same compound, the tissue uptake at 24 h ([1]; read-out: Kidney uptake at 24 h p.i.) was 1.41 ± 0.11 %ID/g, the tissue uptake at 4 h ([1]; read-out: Liver uptake at 4 h p.i.) was 0.12 ± 0.005 %ID/g and the “affinity of binding to CAIX” value (human CAIX; SPR) was “subnanomolar affinity”. For the same compound, the t1/2 (human CAIX; SPR dissociation half-life) was 99 min, the mean dissociation half-life (human CAIX; SPR, 25°C) was 99 min and the “time up to which plasma concentration was quantifiable” value ([2]; i.v. 0.1 mg/kg) was “up to 2 h”. The “time up to which plasma concentration was quantifiable” value ([2]; i.v. 0.8 mg/kg) was no more than 4 h, the AUC(0-inf) ([2]; i.v. 0.1 mg/kg) was 133 ng·h/mL and the Cmax ([2]; i.v. 0.1 mg/kg) was 377 ng/mL. For the same compound, the clearance ([2]; i.v. 0.1 mg/kg) was 12.7 mL/min/kg, the half-life ([2]; i.v. 0.1 mg/kg) was 22.8 min and the Vd ([2]; i.v. 0.1 mg/kg) was 0.26 L/kg. For the same compound, the AUC(0-inf) ([2]; i.v. 0.8 mg/kg) was 1760 ng·h/mL, the Cmax ([2]; i.v. 0.8 mg/kg) was 4430 ng/mL and the clearance ([2]; i.v. 0.8 mg/kg) was 7.6 mL/min/kg. It also gave a half-life ([2]; i.v. 0.8 mg/kg) of 28.8 min, a Vd ([2]; i.v. 0.8 mg/kg) of 0.19 L/kg and a CL renal ([2]; i.v. 0.1 mg/kg) of 0.0344 mL/min/kg. The CL renal ([2]; i.v. 0.8 mg/kg) was 0.0114 mL/min/kg, the tissue uptake at 4 h ([3]; SK-RC-52, In-111-labeled, 4% gelofusine before, Mean ± SEM, read-out: Blood uptake at 4 h p.i.) was 0.03 ± 0.01 %ID/g and the tissue uptake at 24 h ([3]; SK-RC-52, In-111-labeled, 4% gelofusine before, Mean ± SEM, read-out: Kidney uptake at 24 h p.i.) was 0.73 ± 0.2 %ID/g. The tissue uptake at 4 h ([3]; SK-RC-52, In-111-labeled, 4% gelofusine before, Mean ± SEM, read-out: Liver uptake at 4 h p.i.) was 0.12 ± 0.01 %ID/g, the tissue uptake ([3]; SK-RC-52, In-111-labeled, 4% gelofusine before, Mean ± SEM, read-out: Peak Kidney uptake) was 1.84 ± 0.14 %ID/g and the tissue uptake at 4 h ([3]; SK-RC-52, In-111-labeled, no gelofusine, Mean ± SEM, read-out: Blood uptake at 4 h p.i.) was 0.05 ± 0.01 %ID/g. For the same compound, the tissue uptake at 24 h ([3]; SK-RC-52, In-111-labeled, no gelofusine, Mean ± SEM, read-out: Kidney uptake at 24 h p.i.) was 0.95 ± 0.05 %ID/g, the tissue uptake at 4 h ([3]; SK-RC-52, In-111-labeled, no gelofusine, Mean ± SEM, read-out: Liver uptake at 4 h p.i.) was 0.18 ± 0.04 %ID/g and the tissue uptake ([3]; SK-RC-52 tumor mice, In-111-labeled, 4% gelofusine immediately before, Mean ± SEM, N=3, read-out: Peak Tumor Uptake) was 13.4 ± 0.39 %ID/g.
`CC(C)C[C@@H]1NC(=O)[C@H](Cc2cccc(NC(=O)CCCS(N)(=O)=O)c2)NC(=O)[C@H](CC(=O)O)NC(=O)[C@H]2CCCN2C(=O)[C@H](CCC(=O)O)NC(=O)[C@@H](NC(=O)[C@H](CCC(N)=O)NC(=O)CN2CCN(C(=O)CN3CCN(CC(=O)O)CCN(CC(=O)O)CCN(CC(=O)O)CC3)CC2)CSCc2cccc(c2)CSC[C@@H](C(N)=O)NC(=O)[C@H](CO)NC(=O)[C@H](Cc2c[nH]c3ccccc23)NC(=O)[C@H]([C@@H](C)O)NC1=O` [[^111In]In-DPI-4452, metal not drawn] gave a tissue uptake ([3]; SK-RC-52 model, with gelofusine, 1-2 hours post injection, read-out: peak kidney uptake) of 1.84 ± 0.14 %ID/g, a tissue uptake at 24 h ([3]; SK-RC-52 model, with gelofusine, 24 hours post injection, read-out: kidney uptake) of 0.73 ± 0.02 %ID/g and a tissue uptake at 24 h ([3]; SK-RC-52 model, without gelofusine, 24 hours post injection, read-out: kidney uptake) of 0.95 ± 0.05 %ID/g. The tissue uptake ([3]; SK-RC-52 tumor, 4% gelofusine immediately before, peak at 4 hours (DPI-4452) or 1 hour (DPI-4501), mean±SEM, read-out: peak tumor uptake) was 13.4 ± 0.39 %ID/g and the tissue uptake ([3]; summary over tumor models, read-out: peak tumor uptake, typical (conclusion)) was 7 %ID/g.
